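Interpolation was linear, between the two tested concentrations surrounding the appropriate level; five concentrations were tested over 48 hours in 96-well plates. GI50 is the concentration that inhibits growth by half.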 Activity calls are given as the source filed them. No stated cut-off is given here; in the data, active = GI50 up to about 1.1 µM and inactive = higher.
Experiments:
Experiment in all cases: inhibition of tumour cell growth, NCI panel, 48 h
KM-20L2 = system: KM-20L2
DMS-273 = system: DMS-273
DMS-114 = system: DMS-114
XF498 = system: XF498
DLD-1 = system: DLD-1
HOP-18 = system: HOP-18
LXFL 529 = system: LXFL 529
SNB-78 = system: SNB-78
RXF 631 = system: RXF 631

Measured: GI50

CCOC(=O)C(=O)/C=C(\C)Nc1c(NC2OCC(OC(C)=O)C(OC(C)=O)C2OC(C)=O)nc(SC)[nH]c1=O (centres undefined)
inactive: KM-20L2 > 100 µM | DMS-273 > 100 µM | DMS-114 > 100 µM | XF498 > 100 µM | DLD-1 > 100 µM | HOP-18 > 100 µM | LXFL 529 > 100 µM

CC(C)NCCNC(=O)c1ccccc1Nc1c(Cl)cccc1Cl
inactive: KM-20L2 2.73 µM | DMS-273 13.2 µM | DMS-114 10.9 µM | XF498 2.92 µM | DLD-1 13 µM | SNB-78 14.6 µM | LXFL 529 16.9 µM

CCc1cccc(C)c1N1C(=O)C(=O)C(c2nc3ccccc3o2)C(=O)C1=O
inactive: KM-20L2 > 100 µM | DMS-273 > 100 µM | XF498 > 100 µM | DLD-1 > 100 µM | SNB-78 > 100 µM | HOP-18 > 100 µM | LXFL 529 > 100 µM

O=C(O)CCN(CCCN(CCC(=O)O)CCC(=O)O)CCC(=O)O
inactive: KM-20L2 > 100 µM | DMS-273 > 100 µM | DMS-114 > 100 µM | XF498 > 100 µM | DLD-1 > 100 µM | RXF 631 > 100 µM | HOP-18 > 100 µM | LXFL 529 > 100 µM

COC(=O)C(=O)C1(CCC(C)=O)c2ccccc2-c2c(C)ccc(C)c21 (centres undefined)
inactive: KM-20L2 58.3 µM | DMS-273 31.6 µM | DMS-114 33.7 µM | DLD-1 50.1 µM | SNB-78 19 µM | HOP-18 56.4 µM | LXFL 529 37.8 µM

Nc1ccc(C(=O)N/C(=C\c2cccc([N+](=O)[O-])c2)c2nc3ccccc3[nH]2)cc1
inactive: KM-20L2 > 87.1 µM | DMS-273 55.2 µM | DMS-114 29.4 µM | XF498 23.5 µM | DLD-1 66.8 µM | SNB-78 57.3 µM | LXFL 529 29.4 µM

CC(C)N(C(=O)C12C3C4C1C1C2C3C41C(O)C(C)(C)C)C(C)C (centres undefined)
inactive: KM-20L2 > 50 µM | DMS-273 > 50 µM | DMS-114 > 50 µM | XF498 > 50 µM | SNB-78 > 50 µM | LXFL 529 > 50 µM

OCC1OC(NO)C(O)C(O)C1O (centres undefined)
inactive: KM-20L2 > 100 µM | DMS-273 > 100 µM | XF498 > 100 µM | DLD-1 > 100 µM | RXF 631 > 100 µM | SNB-78 > 100 µM | HOP-18 > 100 µM | LXFL 529 > 100 µM

CCCN/C(N)=N/C#N
inactive: KM-20L2 34.7 µM | DMS-273 62.1 µM | DMS-114 19.4 µM | DLD-1 66.8 µM | SNB-78 > 100 µM | HOP-18 > 100 µM | LXFL 529 76.6 µM

CN(C)CC1CCCC(CN2CCCCC2)C1=O (centres undefined)
inactive: KM-20L2 19.6 µM | DMS-273 22.1 µM | DLD-1 2.98 µM | SNB-78 7.71 µM | HOP-18 2.02 µM

CN(C(=O)C12C3C4C1C1C4(C(=O)C45C6C7C4C4C5C6C74C)C3C12C)C(C)(C)C (centres undefined)
inactive: KM-20L2 31.2 µM | DMS-273 53.6 µM | DMS-114 39.8 µM | XF498 49 µM | DLD-1 56.5 µM | RXF 631 34.6 µM | SNB-78 78.3 µM | LXFL 529 37.8 µM

Clc1ccc(C(c2ccc(Cl)cc2)c2ccccn2)cc1
inactive: KM-20L2 14.4 µM | DMS-114 28.4 µM | XF498 18.2 µM | DLD-1 20.8 µM | SNB-78 33.8 µM | HOP-18 24.8 µM | LXFL 529 17.7 µM

Source: ChEMBL document CHEMBL1201862, “PubChem BioAssay data set” (2004)
